These results are taken from US20220226334A1, “ANTIBODY CONJUGATE AND APPLICATION OF PHARMACEUTICAL COMPOSITION THEREOF” (SHANGHAI FUDAN-ZHANGJIANG BIO-PHARMACEUTICAL CO., LTD., priority 2019, published 2022).

Experiment [1] deals with Karpas299 cells. Description: In vitro killing of Karpas299 cells (AlamarBlue), single drugs and combinations. The experiment is classed as cell-based, human.
Procedure: (§1) After the sample was added, it was cultured in 5% CO2 at 37° C. for 77±2 hours, stained with AlamarBlue fluorescent dye, cultured for 19±2 hours, and read at 530 nm (excitation)/590 nm (emission). The IC50 value of the semi-inhibitory concentration of each sample was calculated by fitting with the computer's four-parameter equation software.
(§2) Cell proliferation method was used to investigate the killing effect of drugs on cells.
Experiment [2] concerns Hodgkin lymphoma cells L540. Description: In vitro killing of L540 cells, single drugs and combinations. The experiment is classed as cell-based.
Procedure: as §1, §2
The subject of experiment [3] is Hodgkin lymphoma cells L428. Description: In vitro killing of L428 cells (AlamarBlue), single drugs, MDR1 inhibitor, combinations.
Procedure: Cell proliferation method was used to investigate the killing effect of drugs on cells. L428 cells were inoculated in 96-well cell culture plates at 5×10^4 cell/mL, i.e., 5000 cells per well. Doxorubicin was diluted to 259.5 ng/mL, 129.8 ng/mL, 64.88 ng/mL, 32.44 ng/mL, 21.63 ng/mL, 14.42 ng/mL, 9.611 ng/mL, 3.844 ng/mL, 1.538 ng/mL using cell culture medium, for a total of 9 concentrations. Serial dilutions of Doxorubicin were added to the culture plates of the seeded plates and incubated for 77±2 hours at 37° C. in a 5% CO2 incubator. The samples were stained with AlamarBlue fluorescent dye and incubated at 37° C. in a 5% CO2 incubator for 19±2 hours. Readings were performed at wavelength of 50 nm (excitation)/590 nm (emission). The IC50 value of Doxorubicin was calculated by fitting it with four-parameter equation.
Calcusyn, the software for calculating the combination index, was chosen to calculate the CI of the combination index at different killing levels,
Experiment [4] addresses MDR1 (multidrug resistance gene 1 product, CD243, ABC B1) on the cell surface (UniProt P08183). Description: flow cytometry, PE-labelled UIC2 on HH cells (cells other than L428 did not express MDR1); PBS as negative control.
Experiment [5] has the same target. Description: flow cytometry, PE-labelled UIC2 on L540 cells (cells other than L428 did not express MDR1); PBS as negative control.
The target is the same in experiment [6]. Description: flow cytometry, PE-labelled UIC2 on L428 cells (text: L428 specifically expressed MDR1 on the surface); PBS as negative control.
The target is the same in experiment [7]. Put plainly: flow cytometry, PE-labelled UIC2 on Karpas 299 cells (cells other than L428 did not express MDR1); PBS as negative control.
In experiment [8] the test system is Hodgkin lymphoma cells L428. The following applies: known in the art; cited from earlier work.
Setting [9] is: Homo sapiens, KARPAS-299, Karpas299 cells, Table 13, read-out: IC50 of single drug.
Setting [10] is: Homo sapiens, L-540, L540, Tables 8 and 13, read-out: IC50 of single drug.
Where [11] appears, read: Homo sapiens, L-428, read-out: IC50 of single drug.

Like-named read-outs stand apart in the source and are kept apart here. Where a SMILES comes first, the peptide text is derived from it. [ ]: non-standard residue; d: D form. The star is where a group is joined. Dolaproine = CO[C@@H]([C@@H]1CCCN1)[C@@H](C)C(=O)O; Dil = CC[C@H](C)[C@H](NC)[C@@H](CC(=O)O)OC; X1 = C[C@@H](N*)[C@@H](O)c1ccccc1; NMeV = CN[C@H](C(=O)O)C(C)C

For the compound `C[C@]12C=CC(=O)C=C1CC[C@@H]1[C@@H]2C(=O)C[C@@]2(C)[C@H]1CC[C@]2(O)C(=O)CO` [Prednisone], the half-inhibitory concentration (IC50) in experiment [1] (setting [9]) is 187 µM; in experiment [2] (setting [10]), 98.5 µM; in experiment [3] (setting [11]) it was 113 µM.
Regarding `COc1cccc2c1C(=O)c1c(O)c3c(c(O)c1C2=O)C[C@@](O)(C(=O)CO)C[C@@H]3O[C@H]1C[C@H](N)[C@H](O)[C@H](C)O1` [Doxorubicin], the concentration for half-maximal inhibition (IC50) in experiment [1] (setting [9]) was 0.0405 µM; in experiment [2] (setting [10]), 0.0585 µM; in experiment [3] (setting [11]), 0.0278 µM.
In the case of “CD243 (ABC B1) monoclonal antibody (UIC 2), PE (ThermoFisher)”, the MDR1 binding ratio in experiment [4] was determined as 2.6; in experiment [5], 1.2; in experiment [6], 16.1; in experiment [7], 1.2.
On to `CN(C)/N=N/c1[nH]cnc1C(N)=O` [Dacarbazine], for which the IC50 was 31.3 µM in experiment [2] (setting [10]) and 178 µM in experiment [3] (setting [11]).
As to `CNNCc1ccc(C(=O)NC(C)C)cc1` [Procarbazine], the IC50 was determined as 26.9 µM in experiment [1] (setting [9]), 24.7 µM in experiment [2] (setting [10]) and 500 µM in experiment [3] (setting [11]).
For `CC[C@H](C)[C@@H]([C@@H](CC(=O)N1CCC[C@H]1[C@H](OC)[C@@H](C)C(=O)N[C@H](C)[C@@H](O)c1ccccc1)OC)N(C)C(=O)[C@@H](NC(=O)[C@@H](NC)C(C)C)C(C)C` [MMAE] (H-[NMeV]V[Dil][Dolaproine]-X1), the “Sensitivity of L428 to the small molecule (in words)” value in experiment [8] is “sensitive”.
Regarding `CC[C@]1(O)C[C@H]2CN(CCc3c([nH]c4ccccc34)[C@@](C(=O)OC)(c3cc4c(cc3OC)N(C=O)[C@H]3[C@@](O)(C(=O)OC)[C@H](OC(C)=O)[C@]5(CC)C=CCN6CC[C@]43[C@@H]65)C2)C1` [Vincristine], the half-inhibitory concentration (IC50) in experiment [1] (setting [9]) worked out at 0.0185 µM; in experiment [2] (setting [10]), 0.000772 µM; in experiment [3] (setting [11]) it was 0.0281 µM.
Consider `O=P1(N(CCCl)CCCl)NCCCO1` (stereo not shown) [Cyclophosphamide], for which the concentration for half-maximal inhibition (IC50) in experiment [1] (Homo sapiens, KARPAS-299, read-out: IC50 of single drug) came to 385 µM; in experiment [2] (Homo sapiens, L-540, read-out: IC50 of single drug), 121 µM; in experiment [3] (setting [11]), 590 µM.
In the case of Bleomycin, the half-inhibitory concentration (IC50) in experiment [1] (read-out: IC50 of single drug) turned out to be 1.68 µM; in experiment [2] (read-out: IC50 of single drug), 3.2 µM; in experiment [3] (read-out: IC50 of single drug) it was 2.04 µM.
For `COc1cc([C@@H]2c3cc4c(cc3[C@@H](O[C@@H]3O[C@@H]5CO[C@@H](C)O[C@H]5[C@H](O)[C@H]3O)[C@H]3COC(=O)[C@H]23)OCO4)cc(OC)c1O` [Etoposide], the IC50 amounted to 64.1 µM in experiment [1] (setting [9]), 30.1 µM in experiment [2] (setting [10]) and 54.2 µM in experiment [3] (setting [11]).
